Experimental data from US20150044305A1, “[…] NITRIC OXIDE FOR TREATING RESPIRATORY DISEASES” (Advanced Inhalation Therapies (AIT) Ltd., priority 2012, published 2015).
Read-outs that look alike come from different tables or passages of the source.

Legend:
[1] = Phase I safety study: hematology, clinical chemistry and coagulation; assay type: in vivo, human; details: end of study; baseline 0.15; p=0.104
Description: (§1) After obtaining informed consent, treatment was initiated within 5 days of enrollment. Subjects were housed in a hospital ward and received 160 ppm gNO for 30 minutes every four hours (Q4 h), five times a day, for five consecutive days by inhalation. Subjects returned for follow-up evaluations 3, 7 and 21 days after the final gNO administration. Subject safety was determined by monitoring vital signs, methemoglobin levels, lung function, blood chemistry, hematology, prothrombin time, inflammatory cytokine/chemokines levels and endothelial activation.
Hematological assessment included a complete blood count and differentials (hemoglobin, hematocrit, red blood cell count, white blood cell count, white blood cell differential, and platelet count) were obtained in order to monitor blood chemistry, hematology and inflammation measurements. […] The effect of gNO on coagulation was determined by the prothrombin time (PT) and its derived measures of prothrombin ratio (PR) and international normalized ratio (INR). […] Plasma cytokine levels were assessed using the human inflammation cytokine bead array kit (BD Bioscience, Canada). Plasma levels of angiopoietin Ang-1 and Ang-2 were determined by ELISA (R&D Systems, USA).

[2] = test system: Acinetobacter sp.; details: 200 ppm gNO, saline suspension; cited from earlier work
[3] = test system: influenza A/victoria/H3N2; details: 160 ppm exogenous gNO, virions or incubated cells, MDCK cell model; cited from earlier work
[4] = test system: Serracia sp.; details: 200 ppm gNO, saline suspension; cited from earlier work
[5] = Phase I safety study: serum nitrite/nitrate by Griess reagent; assay type: in vivo, human; details: during the trial, 160 ppm gNO
Description: as §1
(§2) These parameters were measured continuously during every gNO administration course and for 3.5 hours after the first treatment of the day. Daily serum samples were collected and frozen at −80° C. and the serum […] level was measured using the Griess reagent.

[6] = test system: S. aureus; details: cited from earlier work
[7] = test system: vascular endothelial activation factors Ang-1 and Ang-2; experiment: Phase I safety study: plasma angiopoietin Ang-1 and Ang-2; assay type: in vivo, human; details: vs baseline
Description: as §1
Hematological assessment included a complete blood count and differentials (hemoglobin, hematocrit, red blood cell count, white blood cell count, white blood cell differential, and platelet count) were obtained in order to monitor blood chemistry, hematology and inflammation measurements. The blood chemistry profile included serum creatinine, and liver function tests such as aspartate aminotransferase (AST) serum glutamic oxaloacetic transaminase (SGOT), alkaline phosphatase, and gamma-glutamyl transferase (GGT). The effect of gNO on coagulation was determined by the prothrombin time (PT) and its derived measures of prothrombin ratio (PR) and international normalized ratio (INR). Heparinized plasma was collected at baseline and on days 1, 2, 4, and 5 of gNO administration, and on follow-up days 3, 7 and 21 and frozen at −80° C. Plasma cytokine levels were assessed using the human inflammation cytokine bead array kit (BD Bioscience, Canada). Plasma levels of angiopoietin Ang-1 and Ang-2 were determined by ELISA (R&D Systems, USA).

[8] = test system: Mycobacterium; details: 200 ppm gNO, saline suspension; cited from earlier work
[9] = Phase I safety study: oxygen saturation (SpO2) by pulse oximeter; assay type: in vivo, human
Description: as §1
Abbreviated physical examination by a registered nurse was carried out each day prior to initiation of treatments on days 1-5. Oxygenation was measured with a pulse oximeter (Rad 57, Masimo Corporation, USA) which was used according to manufacturer's guidelines to measure functional oxygen saturation of arterial hemoglobin (SpO2) and heart rate. These parameters were measured continuously during every gNO administration and for 3.5 hours after the first treatment of the day.

[10] = topical 200 ppm gNO, cited from earlier work
[11] = test system: P. aeruginosa (ATCC); details: 200 ppm gNO, saline suspension; cited from earlier work
[12] = test system: S. maltophilia; details: 200 ppm gNO, saline suspension; cited from earlier work
[13] = test system: highly pathogenic Avian Influenza H7N3; details: cited from earlier work
[14] = test system: all microorganisms tested; details: 200 ppm gNO, cited from earlier work
[15] = test system: methemoglobin; experiment: Phase I safety study: methemoglobin (SpMet) by pulse oximeter; assay type: in vivo, human
Description: as §1
The levels of gNO, NO2, O2 and methemoglobin were monitored during the administration of gNO. The target gas mixture was 160 ppm gNO with a nitrogen dioxide (NO2) level of less than 5 ppm and an oxygen (O2) level ranging from 21% to 25%. Inspiratory NO, NO2 and O2 levels were continuously monitored by sampling from the mouthpiece sample port located about 6 millimeters from the mouth of the subject with an AeroNOx (Pulmonox, AB, Canada) NO, NO2 and O2 electrochemical analyzer. Delivery safety was determined by the number of occasions that NO2 exceeded 5 ppm, gNO exceeding 10% variation and O2 dropping below 20% during gNO administration. A commercially available noninvasive pulse oximeter (Rad 57, Masimo Corporation, USA) was used to measure saturation levels at the periphery of methemoglobin (SpMet).
as §2

[16] = test system: Group B Streptococci; details: 200 ppm gNO, saline suspension; cited from earlier work
[17] = test system: S. aureus (ATCC); details: 200 ppm gNO, saline suspension; cited from earlier work
[18] = cited from earlier work
[19] = test system: Klebsiella sp.#2; details: 200 ppm gNO, saline suspension; cited from earlier work
[20] = test system: methemoglobin; details: healthy humans, cited from earlier work
[21] = levels of gNO greater than 120 ppm
[22] = 160 ppm gNO 30 minutes, five times a day, five days
[23] = saline suspension, average over the bacteria of Table 1

For `[N]=O` [gNO, nitric oxide], the eosinophil cell numbers [1] is listed as 0.19 giga/L, the “LD100” value [2] is listed as 6 h and the “Latent Period” value [2] is listed as 4 h. For the same molecule, the “−2.5 Log10 (hours)” value [2] was 5 hours, the “viral replication and infectivity” value [3] was “reduced not only viral replication but also their infectivity” and the “LD100” value [4] was 6 h. The “Latent Period” value [4] was 4 h, the “−2.5 Log10 (hours)” value [4] was 4.9 hours and the “serum nitrite/nitrate levels vs baseline” value [5] was “no significant differences”. The “reduction of colony formation” value [6, 21] was “greater than 90%”, the “time required to achieve greater than 90% reduction of colony formation” value [6, 21] was 8 to 12 h and the “survival (downward bactericidal trend)” value ([6]; solid media, increasing gNO concentration up to 160 ppm, vs medical air) was 5-10%. For the same molecule, the Ang-1 plasma level [7] was “unaffected”, the Ang-2/Ang-1 ratio [7] was “not affected” and the Ang-2 plasma level [7] was “not affected”. The “LD100” value [8] was 10 h, the “Latent Period” value [8] was 7 h and the “−2.5 Log10 (hours)” value [8] was 9.2 hours. The “lowest observed SpO2” value [9, 22] was 93%, the “incidences of hypoxemia (less than 85% SpO2)” value ([9]; during or after gNO administration) was “No sudden incidences of hypoxemia” and the “SpO2 levels over time between pretreatment and post treatment” value ([9]; not significant statistically nor clinically) was “decreased slightly”. For the same molecule, the wound size reduction ([10]; at one week) was 42%, the biofilm presence ([10]; within the first three days of treatment) was “no longer visibly present” and the “LD100” value [11] was 3 h. The “Latent Period” value [11] was 1 h, the “−2.5 Log10 (hours)” value [11] was 2.1 hours and the “LD100” value [12] was 4 h. For the same molecule, the “Latent Period” value [12] was 2 h, the “−2.5 Log10 (hours)” value [12] was 2.8 hours and the “viral replication and infectivity” value [13] was “reduced not only viral replication but also their infectivity”. For the same molecule, the “reduction in CFU/mL” value ([14]; every bacteria challenged) was no less than 3 log10 CFU/mL, the “LD100 (hours), Average” value [14, 23] was 4.77 h and the “Latent Period (hours), Average” value [14, 23] was 2.77 h. For the same molecule, the “−2.5 Log10 (hours), Average” value [14, 23] was 3.82 hours, the “residual increase in SpMet at follow-up” value ([15]; 3, 7 and 21 days after the final exposure to gNO) was “did not show any residual increase” and the “all 930 recorded methemoglobin percent levels (SpMet)” value [15, 22] was less than 5%. The “SpMet increase between pretreatment and post treatment” value ([15]; 160 ppm gNO, p<0.001) was “about 1%”, the “time for SpMet to return to baseline” value ([15]; after 160 ppm gNO administration) was 3.5 h and the “accumulative or lingering effect on SpMet” value ([15]; after five daily treatments for five consecutive days) was “no accumulative or lingering effect”. For the same molecule, the “highest SpMet” value ([15]; at the end of the 160 ppm gNO treatment) was 2.5%, the “average increase of SpMet” value ([15]; single 30 minutes treatment course, 160 ppm gNO, ten individuals) was 0.9% and the “LD100” value [16] was 2 h. The “Latent Period” value [16] was 1 h, the “−2.5 Log10 (hours)” value [16] was 1.5 hours and the “LD100” value [17] was 4 h. The “Latent Period” value [17] was 3 h, the “−2.5 Log10 (hours)” value [17] was 3.3 hours and the mortality ([18]; 300 ppm gNO, groups of 10 rats, first 1-2 days) was “Six of the animals treated with 300 ppm gNO died”. For the same molecule, the mortality ([18]; 400 ppm gNO, 6 continuous hours per day, rats) was “all of the animals died on the first day”, the mortality ([18]; 500 ppm gNO, 6 continuous hours per day, rats) was “all of the animals died on the first day” and the MetHb level ([18]; 500 ppm gNO, rats) was 67 percents. For the same molecule, the “LD100” value [19] was 5 h, the “Latent Period” value [19] was 2 h and the “−2.5 Log10 (hours)” value [19] was 4.1 hours. The MetHb level ([20]; inhalation of gNO at 128 ppm for 3 hours) was greater than 5% and the MetHb level ([20]; inhalation of gNO at 512 ppm for 55 minutes) was greater than 5%.
